Measurements from patent US20100137138A1, “HERBICIDE/SAFENER COMBINATION” (BAYER CROPSCIENCE AG, priority 2008, published 2010).

Experiments:
Assay type in all cases: in vivo
Corn (Aventura) [1] = experiment: Pre-emergence herbicidal effect and safener effect, Corn (Aventura); details: herbicide dosage 100 g a.i./ha, visual scoring vs untreated controls
Description: (§1) Seeds or rhizome pieces of mono- and dicotyledonous weed plants and crop plants were planted in peat pots in sandy loam and covered with earth. The herbicide/safener active ingredient combinations according to the invention, formulated as water-soluble powders or suspensions, and, in parallel experiments, the correspondingly formulated individual active ingredients were then applied to the surface of the covering earth at an application rate of 600 to 800 l of water/ha (converted) in a variety of dosages.
(§2) After the treatment, the pots were placed in the greenhouse and kept under good growth conditions for the weeds and the crop plants. Visual scoring of the plant damage or emergence damage was carried out after the test plants had emerged after a test period of 2 to 4 weeks, in comparison with untreated controls.

Barley (Adonis) = experiment: Post-emergence herbicidal effect and safener effect, Barley (Adonis); details: herbicide dosage 25 g a.i./ha, visual scoring vs untreated controls
Experimental: (§3) Seeds or rhizome pieces of mono- and dicotyledonous harmful plants and of crop plants are planted in peat pots in sandy loam, covered with earth and grown in a greenhouse under good growth conditions. Alternatively to this, harmful plants occurring in the paddy rice cultivation are cultivated in pots in which water stands up to 2 cm above the soil surface. 10 to 20 days after sowing, the test plants are treated in the one to three-leaf stage. The herbicide/safener active ingredient combinations according to the invention, formulated as water-soluble powders or suspensions, and, in parallel experiments, the correspondingly formulated individual active ingredients are sprayed onto the green plant parts in various dosages using an application rate of 300 l of water/ha (converted) and, after the test plants have remained in the greenhouse under optimum growth conditions for 2-3 weeks, the effect of the preparations is scored visually in comparison with untreated controls. In the case of rice or in the case of harmful plants which occur in the rice cultivation, the active ingredients are also placed directly into the irrigation water (application analogous to the so-called granules application) or sprayed onto plants and into the irrigation water.

Rice (Ballila) = experiment: Post-emergence herbicidal effect and safener effect, Rice (Ballila); details: herbicide dosage 100 g a.i./ha, visual scoring vs untreated controls
Experimental: as §3

Corn (Aventura) [2] = experiment: Post-emergence herbicidal effect and safener effect, Corn (Aventura); details: herbicide dosage 50 g a.i./ha, visual scoring vs untreated controls
Experimental: as §3

Wheat (Triso) = experiment: Pre-emergence herbicidal effect and safener effect, Wheat (Triso); details: herbicide dosage 100 g a.i./ha, visual scoring vs untreated controls
Description: as §1, §2

## COC(=O)c1nc(-c2ccc(Cl)c(OC)c2F)nc(N)c1Cl [Compound I-272]
Corn (Aventura) [1]
  % Effect (without safener): 70%
Barley (Adonis)
  % Effect (without safener): 20%
Rice (Ballila)
  % Effect (without safener): 70%
Corn (Aventura) [2]
  % Effect (without safener): 70%
Wheat (Triso)
  % Effect (without safener): 30%
